Measured values: article PMC2949399, “Gene Expression Signature-Based Screening Identifies New Broadly Effective Influenza A Antivirals” (PLoS ONE, 2010)
Read-outs that look alike come from different tables or passages of the source.

Key:
in vitro = settings: human
[1] = system: A/New Caledonia/20/99 (H1N1)
[2] = system: A/Lyon/969/09 (H1N1 SOIV)
A/Turkey/582/2006 (H5N1) [3] = system: A/Turkey/582/2006 (H5N1)
[4] = system: A/Finch/England/2051/94 (H5N2)
[5] = system: A/Chicken/Italy/2076/99 (H7N1)
influenza A viruses = type: cell-based, influenza A virus
[6] = system: A/New Caledonia/20/99 (H1N1); experiment: microbe, parasite or virus in culture; settings: Influenza A virus
[7] = system: A/Lyon/969/09 (H1N1 SOIV); experiment: microbe, parasite or virus in culture; settings: Influenza A virus
A/Turkey/582/2006 (H5N1) [8] = experiment: microbe, parasite or virus in culture; settings: Influenza A virus
[9] = system: A/Finch/England/2051/94 (H5N2); experiment: microbe, parasite or virus in culture; settings: Influenza A virus, H5N2, A549, 65 h
[10] = system: A/Chicken/Italy/2076/99 (H7N1); experiment: microbe, parasite or virus in culture; settings: Influenza A virus, H7N1, A549, in Gallus gallus, 65 h
[11] = H1N1, A549, 65 h, read-out: EC50 H1N1 moi 0.2
[12] = H1N1, A549, 65 h, read-out: EC50 H1N1 moi 2
[13] = H1N1, A549, 65 h, read-out: EC50 SOIV moi 0.2
[14] = H1N1, A549, 65 h, read-out: EC50 SOIV moi 2
[15] = H5N1, A549, 65 h, read-out: EC50 H5N1 moi 0.2
[16] = H5N1, A549, 65 h, read-out: EC50 H5N1 moi 2

SMILES: CCCCCCCCNC(C)C(O)c1ccc(SC(C)C)cc1 (stereo not drawn) [Sulodictil]
- CC50 (in vitro): 0.1 mM

SMILES: C[S+](C)[O-] [DMSO, dimethylsulfoxide]
- EC50 ([1]; read-out: EC50 H1N1 moi 0.2): 174 µM
- EC50 ([1]; read-out: EC50 H1N1 moi 2): > 1600 µM
- EC50 ([2]; read-out: EC50 SOIV moi 0.2): 344 µM
- EC50 ([2]; read-out: EC50 SOIV moi 2): 606 µM
- EC50 (A/Turkey/582/2006 (H5N1) [3]; read-out: EC50 H5N1 moi 0.2): 1830 µM
- EC50 (A/Turkey/582/2006 (H5N1) [3]; read-out: EC50 H5N1 moi 2): > 1600 µM
- EC50 ([4]; read-out: EC50 H5N2 moi 0.2): 564 µM
- EC50 ([4]; read-out: EC50 H5N2 moi 2): 734 µM
- EC50 ([5]; read-out: EC50 H7N1 moi 0.2): 801 µM
- EC50 ([5]; read-out: EC50 H7N1 moi 2): 1110 µM

SMILES: CO[C@H]1/C=C\C=C(/C)C(=O)NC2=CC(=O)C(NCCN(C)C)=C(C[C@@H](C)C[C@H](OC)[C@H](O)[C@@H](C)/C=C(\C)[C@@H]1OC(N)=O)C2=O [alvespimycin, Alvespimycin]
- CC50 (in vitro): > 0.01 mM

SMILES: Cc1nccc2c1[nH]c1cc(O)ccc12.Cl [Harmol, harmol hydrochloride]
- CC50 (A549 cells): 95 µM
- EC50 ([1]; read-out: EC50 H1N1 moi 0.2): 20.5 µM
- EC50 ([1]; read-out: EC50 H1N1 moi 2): 60.4 µM
- SI = CC50/EC50, H1N1 SOIV [2]: 14
- EC50 ([2]; read-out: EC50 SOIV moi 0.2): 6.76 µM
- EC50 ([2]; read-out: EC50 SOIV moi 2): 53.7 µM
- EC50 (A/Turkey/582/2006 (H5N1) [3]; read-out: EC50 H5N1 moi 0.2): 43.4 µM
- EC50 (A/Turkey/582/2006 (H5N1) [3]; read-out: EC50 H5N1 moi 2): 77.5 µM
- EC50 ([4]; read-out: EC50 H5N2 moi 0.2): 13.5 µM
- EC50 ([4]; read-out: EC50 H5N2 moi 2): 4.06 µM
- EC50 ([5]; read-out: EC50 H7N1 moi 0.2): 28 µM
- EC50 ([5]; read-out: EC50 H7N1 moi 2): 49.4 µM

SMILES: CO[C@@]1(NC(=O)C(C(=O)O)c2ccc(O)cc2)C(=O)N2C(C(=O)O)=C(CSc3nnnn3C)CO[C@@H]21 (stereo partly drawn) [Latamoxef, moxalactam]
- CC50 (in vitro): 0.593 mM

SMILES: C1COC(NC(C2CC2)C2CC2)=N1 [Rilmenidine]
- CC50 (A549 cells): 1130 µM
- EC50 ([1]; read-out: EC50 H1N1 moi 0.2): 24.2 µM
- EC50 ([1]; read-out: EC50 H1N1 moi 2): 506 µM
- Inhibitor class / antiviral effect, H1N1 SOIV [2]: ineffective
- EC50 ([2]; read-out: EC50 SOIV moi 0.2): 864 µM
- EC50 ([2]; read-out: EC50 SOIV moi 2): 1070 µM
- EC50 (A/Turkey/582/2006 (H5N1) [3]; read-out: EC50 H5N1 moi 0.2): 1470 µM
- EC50 (A/Turkey/582/2006 (H5N1) [3]; read-out: EC50 H5N1 moi 2): 2040 µM
- EC50 ([4]; read-out: EC50 H5N2 moi 0.2): 359 µM
- EC50 ([4]; read-out: EC50 H5N2 moi 2): 514 µM
- EC50 ([5]; read-out: EC50 H7N1 moi 0.2): 778 µM
- EC50 ([5]; read-out: EC50 H7N1 moi 2): 1050 µM

SMILES: Nc1ccccc1S(N)(=O)=O [2-Aminobenzenesulfonamide, 2-aminobenzenesulfonamide]
- Inhibitor class across the tested viruses (influenza A viruses): inefficient
- Cytotoxicity at the highest tested dose (A549 cells): none of these molecules was cytotoxic at the highest tested dose
- SI = CC50/EC50, H1N1 SOIV [2]: 13
- CC50 (in vitro): > 6.9 mM
- EC50 [6, 11]: > 690 µM
- EC50 [6, 12]: > 690 µM
- EC50 [7, 13]: 534 µM
- EC50 [7, 14]: 1820 µM
- EC50 (A/Turkey/582/2006 (H5N1) [8]; [15]): > 690 µM
- EC50 (A/Turkey/582/2006 (H5N1) [8]; [16]): > 690 µM
- EC50 ([9]; read-out: EC50 H5N2 moi 0.2): > 690 µM
- EC50 ([9]; read-out: EC50 H5N2 moi 2): > 690 µM
- EC50 ([10]; read-out: EC50 H7N1 moi 0.2): > 690 µM
- EC50 ([10]; read-out: EC50 H7N1 moi 2): > 690 µM

SMILES: O=C([O-])c1ccccc1-c1c2cc(Br)c(=O)cc-2oc2[c]([Hg+])c([O-])c(Br)cc12.[Na+].[Na+].[OH-] [Merbromin, merbromine]
- EC50 (influenza A viruses; read-out: EC50 (all viruses tested)): ~50 µM
- CC50 (A549 cells): 104 µM
- SI = CC50/EC50, H1N1 [1]: 2.01
- EC50 ([1]; read-out: EC50 H1N1 moi 0.2): 62 µM
- EC50 ([1]; read-out: EC50 H1N1 moi 2): 29.6 µM
- EC50 ([2]; read-out: EC50 SOIV moi 0.2): > 50 µM
- EC50 ([2]; read-out: EC50 SOIV moi 2): 37.5 µM
- EC50 (A/Turkey/582/2006 (H5N1) [3]; read-out: EC50 H5N1 moi 0.2): 46 µM
- EC50 (A/Turkey/582/2006 (H5N1) [3]; read-out: EC50 H5N1 moi 2): 45 µM
- SI = CC50/EC50, H5N2 [4]: 2.7
- EC50 ([4]; read-out: EC50 H5N2 moi 0.2): 21.9 µM
- EC50 ([4]; read-out: EC50 H5N2 moi 2): 36.5 µM
- SI = CC50/EC50, H7N1 [5]: 2.4
- EC50 ([5]; read-out: EC50 H7N1 moi 0.2): 46.7 µM
- EC50 ([5]; read-out: EC50 H7N1 moi 2): 43.7 µM

SMILES: COc1ccc(OC)c(C(O)CNC(=O)CN)c1 (stereo not drawn) [Midodrine, midodrine]
- Inhibitor class across the tested viruses (influenza A viruses): weak to moderate inhibitors
- Cytotoxicity at the highest tested dose (A549 cells): none of these molecules was cytotoxic at the highest tested dose
- SI = CC50/EC50, H1N1 SOIV [2]: 40
- SI = CC50/EC50, H5N1 (A/Turkey/582/2006 (H5N1) [3]): 1.09
- CC50 (in vitro): > 4.25 mM
- EC50 [6, 11]: 29.8 µM
- EC50 [6, 12]: 1570 µM
- EC50 [7, 13]: 109 µM
- EC50 [7, 14]: 930 µM
- EC50 (A/Turkey/582/2006 (H5N1) [8]; [15]): 3900 µM
- EC50 (A/Turkey/582/2006 (H5N1) [8]; [16]): > 4250 µM
- EC50 ([9]; read-out: EC50 H5N2 moi 0.2): 476 µM
- EC50 ([9]; read-out: EC50 H5N2 moi 2): 1670 µM
- EC50 ([10]; read-out: EC50 H7N1 moi 0.2): > 4250 µM
- EC50 ([10]; read-out: EC50 H7N1 moi 2): > 4250 µM

SMILES: Cc1cc(C(C)(C)CC(C)(C)C)ccc1OCCOCC[N+](C)(C)Cc1ccccc1 [Methylbenzethoniumchloride]
- CC50 (A549 cells): 6.35 µM

SMILES: COc1cnc(NS(=O)(=O)c2ccc(N)cc2)nc1 [Sulfameter]
- CC50 (in vitro): 4.16 mM

SMILES: O=C(O)CNC(=O)C(CS)Cc1ccccc1 (racemic) [DL-Thiorphan]
- CC50 (in vitro): 6.28 mM

SMILES: NC(=O)c1ncn([C@@H]2O[C@H](CO)[C@@H](O)[C@H]2O)n1 [Ribavirin, ribavirin]
- Inhibitor class across the tested viruses (influenza A viruses): strong inhibitor
- SI = CC50/EC50, H1N1 SOIV [2]: 482
- SI = CC50/EC50, H5N1 (A/Turkey/582/2006 (H5N1) [3]): 911
- SI = CC50/EC50, H7N1 [5]: 1367
- CC50 (in vitro): 29.5 mM
- EC50 [6, 11]: 6.63 µM
- EC50 [6, 12]: 73.8 µM
- EC50 ([6]; H1N1, A549, read-out: EC50 H1N1 moi 0.2): 6 µM
- EC50 [7, 13]: 61.1 µM
- EC50 [7, 14]: 292 µM
- EC50 ([7]; H1N1, A549, read-out: EC50 SOIV moi 0.2): 61 µM
- EC50 ([7]; H1N1, A549, read-out: EC50 SOIV moi 2): 292 µM
- EC50 (A/Turkey/582/2006 (H5N1) [8]; [15]): 48.4 µM
- EC50 (A/Turkey/582/2006 (H5N1) [8]; [16]): 632 µM
- EC50 (A/Turkey/582/2006 (H5N1) [8]; H5N1, A549, read-out: EC50 H5N1 moi 2): 632 µM
- EC50 ([9]; read-out: EC50 H5N2 moi 0.2): 6.71 µM
- EC50 ([9]; read-out: EC50 H5N2 moi 2): 16.4 µM
- EC50 ([10]; read-out: EC50 H7N1 moi 0.2): 12.5 µM
- EC50 ([10]; read-out: EC50 H7N1 moi 2): 32.4 µM

SMILES: Nc1nc2c(c(=O)[nH]1)N(C=O)C(CNc1ccc(C(=O)N[C@@H](CCC(=O)O)C(=O)O)cc1)CN2 (stereo partly drawn) [Calcium Folinate, calcium folinate]
- Inhibitor class across the tested viruses (influenza A viruses): inefficient
- Cytotoxicity at the highest tested dose (A549 cells): none of these molecules was cytotoxic at the highest tested dose
- CC50 (in vitro): > 2.4 mM
- EC50 [6, 11]: > 800 µM
- EC50 [6, 12]: > 800 µM
- EC50 [7, 13]: > 2400 µM
- EC50 [7, 14]: > 2400 µM
- EC50 (A/Turkey/582/2006 (H5N1) [8]; [15]): > 800 µM
- EC50 (A/Turkey/582/2006 (H5N1) [8]; [16]): > 800 µM
- EC50 ([9]; read-out: EC50 H5N2 moi 0.2): > 800 µM
- EC50 ([9]; read-out: EC50 H5N2 moi 2): > 800 µM
- EC50 ([10]; read-out: EC50 H7N1 moi 0.2): > 800 µM
- EC50 ([10]; read-out: EC50 H7N1 moi 2): > 800 µM

SMILES: CCN[C@H]1CN(CCCOC)S(=O)(=O)c2sc(S(N)(=O)=O)cc21 [Brinzolamide, brinzolamide]
- Inhibitor class across the tested viruses (influenza A viruses): weak to moderate inhibitors
- Inhibitor class / antiviral effect, H1N1 [1]: moderate inhibitor
- SI = CC50/EC50, H1N1 SOIV [2]: 31
- Inhibitor class, H5N2 [4]: weak inhibitor
- Inhibitor class, H7N1 [5]: weak inhibitor
- CC50 (in vitro): 0.666 mM
- EC50 [6, 11]: 28.9 µM
- EC50 [6, 12]: 435 µM
- EC50 [7, 13]: 21.6 µM
- EC50 [7, 14]: 167 µM
- EC50 (A/Turkey/582/2006 (H5N1) [8]; [15]): > 500 µM
- EC50 (A/Turkey/582/2006 (H5N1) [8]; [16]): > 500 µM
- EC50 ([9]; read-out: EC50 H5N2 moi 0.2): 146 µM
- EC50 ([9]; read-out: EC50 H5N2 moi 2): 232 µM
- EC50 ([10]; read-out: EC50 H7N1 moi 0.2): 139 µM
- EC50 ([10]; read-out: EC50 H7N1 moi 2): 551 µM
